Data from patent US20230130621A1, “APPLICATION OF AGENT IN PREPARATION OF MEDICINE FOR TREATING/INHIBITING PSORIASIS” (priority 2021, published 2023).

Experiments:
endothelial cells = assay: dsDNA in exosomes released by endothelial cells stimulated by cytokines; format: cell-based; settings: cytokine stimulation; FIG. 17, 18
Excerpt: The dsDNA in exosomes released by endothelial cells stimulated by cytokines TNFα and IL17 was detected.

mouse = assay: IL-1b injection into ears of the mouse; format: in vivo; settings: injected into ears of the mouse; FIG. 26, 27
Excerpt: dsDNA-AIM2 finally released the cytokine IL-1b to act on the body.

Substance	dsDNA content in exosomes released by endothelial cells (endothelial cells)	psoriasis-like response in a mouse (skin phenotype, spleen, pathology) (mouse)
IL17: cytokine IL17, clinically relevant cytokine for psoriasis	significantly stimulated the dsDNA content in exosomes released by endothelial cells	
IL-1b: cytokine interleukin 1b		cause psoriasis-like skin phenotype, spleen enlargement and pathological changes
TNFα	significantly stimulated the dsDNA content in exosomes released by endothelial cells	
